Where two headings read alike, the source gives them in different places.
How the values were obtained:
GLP-1 receptor [1] = target: T1, GLP-1 receptor (Rattus norvegicus, UniProt P32301); details: for cAMP production by compound alone: absence of GLP-1; for intrinsic agonistic or antagonistic activity: summary of studies; for effect on GLP-1 dose-response curve / GLP-1 stimulated cAMP production: FIG. 9A
T1 sequence (P32301 22-463): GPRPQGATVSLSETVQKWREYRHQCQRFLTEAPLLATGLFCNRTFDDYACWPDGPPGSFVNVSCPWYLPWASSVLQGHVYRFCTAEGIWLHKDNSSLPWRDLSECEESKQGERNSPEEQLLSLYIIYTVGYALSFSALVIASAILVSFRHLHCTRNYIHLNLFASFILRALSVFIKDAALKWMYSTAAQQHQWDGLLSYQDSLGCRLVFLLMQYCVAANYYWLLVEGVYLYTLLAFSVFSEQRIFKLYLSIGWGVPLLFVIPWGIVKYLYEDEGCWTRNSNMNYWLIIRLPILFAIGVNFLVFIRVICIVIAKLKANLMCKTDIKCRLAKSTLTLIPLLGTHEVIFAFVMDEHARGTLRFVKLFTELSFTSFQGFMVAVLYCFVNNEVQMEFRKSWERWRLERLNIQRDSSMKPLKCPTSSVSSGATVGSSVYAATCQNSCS
From the text: (§1) In the resting stage when the intracellular cAMP is minimal, a large BRET ratio was observed.

GLP-1 = GLP-1 (Homo sapiens, UniProt P01275); assay: Limited trypsin digestion of GLP-1 peptide; format: biochemical; details: free GLP-1 or with galanal b; preliminary observation
GLP-1, sequence (P01275 98-127 limits assumed): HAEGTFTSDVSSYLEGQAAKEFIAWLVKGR
From the text: This is consistent with the finding that GPCR can exist in multiple active conformations, distinct conformation of the receptor is stabilized by distinct ligand structure and may lead to distinct signaling selectivity (55). […] There are at least two possible mechanisms to account for these observations. […] By binding to and modifying structural conformation of the receptor, the allosteric inhibitor of parturition (PDC 113.824) induces biased signaling when an orthosteric ligand is co-bound to the prostaglandin F2α receptor (56). […] Subtle conformation changes in peptide agonists can lead to selective coupling of the receptor to its downstream signaling pathway. As it has been shown in the case of biased agonist for the type 1 parathyroid hormone receptor (PTH1R) (25) and angiotensin II type 1A receptor ligands (57), subtle structure change of the peptide ligands can profoundly stabilize a distinct conformation of the receptor protein that selectively affects the coupling efficiency of a particular downstream signaling pathway.

GLP-1 receptor [2] = target: T2, GLP-1 receptor (Homo sapiens, UniProt P43220); assay: Receptor endocytosis assay, U2OS cells co-expressing GLP-1 receptor and β-arrestin2:GFP; format: cell-based; details: for positive modulation effect on GLP-1 elicited receptor endocytosis in the presence of exendin 9: FIG. 8, plus 1.8 mM of Exendin 9; for Efficacy of GLP-1 to elicit receptor endocytosis: Table 2, printed (100%), GLP-1 only or GLP-1 plus indicated compound
T2 construct: expressed in transfected cells; host or cells: U2OS osteosarcoma cells stably expressing beta-arrestin2:GFP (Norak Biosciences)
T2 sequence (P43220 24-463, species assumed): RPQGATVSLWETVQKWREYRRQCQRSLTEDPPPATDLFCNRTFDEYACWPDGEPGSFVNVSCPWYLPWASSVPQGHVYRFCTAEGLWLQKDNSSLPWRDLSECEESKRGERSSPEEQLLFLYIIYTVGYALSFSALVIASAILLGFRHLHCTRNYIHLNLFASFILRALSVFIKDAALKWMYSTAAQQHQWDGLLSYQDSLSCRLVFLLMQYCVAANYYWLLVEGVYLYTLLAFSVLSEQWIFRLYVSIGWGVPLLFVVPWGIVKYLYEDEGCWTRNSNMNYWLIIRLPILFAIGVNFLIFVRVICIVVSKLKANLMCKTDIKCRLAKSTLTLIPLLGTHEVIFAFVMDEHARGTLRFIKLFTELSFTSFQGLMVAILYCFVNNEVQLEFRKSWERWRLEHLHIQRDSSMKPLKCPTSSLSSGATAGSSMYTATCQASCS
Protocol: U2OS osteosarcoma cell line stably expressing a β-arrestin2:GFP fusion protein was obtained from Norak Biosciences (now Molecular Devices, part of MDS Inc., Mississauga, Ontario). […] Extracts were supplied at a concentration of 100 mg/ml in 100% DMSO. […] Plates were washed with PBS twice and sealed and could be stored at 4° C. The final concentration of the extract in the cell plate was 0.1, 0.03 and 0.001 mg/ml, and the final DMSO concentration was 1%.
Images and data of the cells were performed according to reported methods (51), using an ArrayScan® VTI HCS Reader (Cellomics, Inc. Pittsburgh, Pa.). […] A 20×0.4 numerical aperture microscope objective was used for the imaging, 3 fields were imaged per well, and CELLOMICS's Spot Detector BIOAPPLICATION was used to acquire and analyze the images. For these experiments, the Spot Detector BIOAPPLICATION used the Hoechst-labeled nuclei to identify individual cells and then automatically counted and analyzed the GFP-labeled spots associate with each cell. In addition to the number of spots and the sum of their areas and pixel intensities, the BIOAPPLICATION also reports properties of the individual nuclei such as their area.
One unit of activity is defined as the activity that will reach 50% of maximal response in a well of 384-well plate.
In addition, these processes can be visualized from its image (52), thus easily exclude false positive hits.

GLP-1 receptor [3] = target: T1, GLP-1 receptor; assay: cell-based
From the text: as §1

[4] = test system: cAMP production elicited by GIP; details: 0.025 mg/ml; FIG. 11
From the text: as §1

[5] = test system: cAMP production elicited by glucagon; details: 0.025 mg/ml; FIG. 11
From the text: as §1

PTHR = target: T3, PTHR (Homo sapiens, UniProt Q03431); assay: PTH induced receptor endocytosis, PTHR/β-arrestin 2 GFP U2OS cells; format: cell-based; details: 15 nM of PTH; FIG. 5B
T3 construct: expressed in transfected cells
T3 sequence (Q03431 27-593): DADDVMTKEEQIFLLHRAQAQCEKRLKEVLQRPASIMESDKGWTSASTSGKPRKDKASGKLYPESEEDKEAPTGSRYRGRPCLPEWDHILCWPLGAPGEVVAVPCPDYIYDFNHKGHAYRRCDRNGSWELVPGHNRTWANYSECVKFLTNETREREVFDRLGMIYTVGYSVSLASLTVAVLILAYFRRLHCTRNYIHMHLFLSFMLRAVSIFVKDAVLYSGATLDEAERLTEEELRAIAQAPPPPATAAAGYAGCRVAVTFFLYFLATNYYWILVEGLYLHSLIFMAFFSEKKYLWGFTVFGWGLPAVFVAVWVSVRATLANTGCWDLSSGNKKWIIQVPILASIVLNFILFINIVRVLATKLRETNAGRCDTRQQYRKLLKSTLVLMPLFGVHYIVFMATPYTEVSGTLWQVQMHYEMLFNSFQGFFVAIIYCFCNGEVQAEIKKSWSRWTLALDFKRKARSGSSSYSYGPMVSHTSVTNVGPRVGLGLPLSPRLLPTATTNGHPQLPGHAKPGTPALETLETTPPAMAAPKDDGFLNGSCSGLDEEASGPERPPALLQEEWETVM
Protocol: The GLP-1R/3-arrestin2 GFP (Panel A) or PTHR/β-arrestin 2 GFP (Panel B) double stable expression U2OS cells were plated in 384-well plastic plates at a density of 3000 cell/well and cultured overnight.
U2OS osteosarcoma cell line stably expressing a β-arrestin2:GFP fusion protein was obtained from Norak Biosciences (now Molecular Devices, part of MDS Inc., Mississauga, Ontario). […] Extracts were supplied at a concentration of 100 mg/ml in 100% DMSO. […] The 3 cell assay plates were incubated at room temperature for 60 min before fixation with 2% formaldehyde and labeling of the cell nuclei with 5 μg/mL of the DNA-binding dye Hoechst 33342 (Molecular Probes, Eugene, Oreg.) for 1 hr. Plates were washed with PBS twice and sealed and could be stored at 4° C. The final concentration of the extract in the cell plate was 0.1, 0.03 and 0.001 mg/ml, and the final DMSO concentration was 1%.

COC(=O)C1=CC[C@H]2[C@@H](CC[C@H]3C(C)(C)CCC[C@]23C)C(=O)C1 (racemic) [RJ-011, (±)-(6aS,11aS,11bR)-methyl 4,4,11b-trimethyl-7-oxo-2,3,4,4a,5,6,6a,7,8,11,11a,11b-dodecahydro-1H-cyclohepta[a]naphthalene-9-carboxylate]
melting point: 93 to 94 °C

CC1(C)CCC[C@]2(C)[C@H]3CC=C(CO)C[C@@H](O)[C@@H]3CC[C@@H]12 (racemic) [RJ-013, (±)-(6aS,7R,11aS,11bR)-9-(hydroxymethyl)-4,4,11b-trimethyl-2,3,4,4a,5,6,6a,7,8,11,11a,11b-dodecahydro-1H-cyclohepta[a]naphthalen-7-ol]
melting point: 134 to 135 °C

COC(=O)[C@@H]1CC[C@H]2C(CC[C@H]3C(C)(C)CCC[C@]23C)C(=O)C1 (mixture of isomers) [RJ-015, (±)-(6aS,11aS,11bR)-methyl 4,4,11b-trimethyl-7-oxotetradecahydro-1H-cyclo-hepta-[a]naphthalene-9-carboxylate]
melting point: 67 to 68 °C

COc1cc(C2C(NC(=O)c3ccc(NC(=O)OC(C)(C)C)cc3)(C(=O)O)C(c3ccc(OC(=O)c4cccs4)c(OC)c3)C2(NC(=O)c2ccc(NC(=O)OC(C)(C)C)cc2)C(=O)O)ccc1OC(=O)c1cccs1 (stereo not drawn) [Boc5, reference compound]
concentration needed to stimulate low level cAMP production, fold higher (GLP-1 receptor [1]; RINm5F cells): 1000 fold

CC[C@H](C)[C@H](NC(=O)[C@H](Cc1ccccc1)NC(=O)[C@H](CCC(=O)O)NC(=O)[C@H](CCCCN)NC(=O)[C@H](C)NC(=O)[C@H](C)NC(=O)[C@H](CCC(N)=O)NC(=O)CNC(=O)[C@H](CCC(=O)O)NC(=O)[C@H](CC(C)C)NC(=O)[C@H](Cc1ccc(O)cc1)NC(=O)[C@H](CO)NC(=O)[C@H](CO)NC(=O)[C@@H](NC(=O)[C@H](CC(=O)O)NC(=O)[C@H](CO)NC(=O)[C@@H](NC(=O)[C@H](Cc1ccccc1)NC(=O)[C@@H](NC(=O)CNC(=O)[C@H](CCC(=O)O)NC(=O)[C@H](C)NC(=O)[C@@H](N)Cc1c[nH]cn1)[C@@H](C)O)[C@@H](C)O)C(C)C)C(=O)N[C@@H](C)C(=O)N[C@@H](Cc1c[nH]c2ccccc12)C(=O)N[C@@H](CC(C)C)C(=O)N[C@H](C(=O)N[C@@H](CCCCN)C(=O)NCC(=O)N[C@@H](CCCNC(=N)N)C(=O)NCC(=O)O)C(C)C [GLP-1]
degradation of GLP-1 by limited trypsin digestion (GLP-1): quickly degraded

Cl.c1ccc(C2CCCC2NC2=NCCCCCCCCCCC2)cc1 (stereo not drawn) [MDL 12330A, reference compound]
GLP-1 or forskolin dose response of cAMP (BRET ratio) in presence of inhibitor (GLP-1 receptor [1]; 250 μM): eliminated

COC(=O)C1=CCC2C(CO)(CCC3C(C)(C)CCCC32C)C(=O)C1 [RJ-022, (6aR,1aR,11bS)-methyl6a-(hydroxymethyl)-4,4,11b-trimethyl-7-oxo-2,3,4,4a,5,6,6a,7,8,11,11a,11b-dodecahydro-1H-cyclohepta[a]naphthalene-9-carboxylate]
melting point: 179 to 180 °C

CC1(C)CCC[C@@]2(C)[C@H]1CC[C@@]1(CO)C(O)CC(CO)=CC[C@@H]12 (stereo partly drawn) [compound 2]
positive modulation effect on GLP-1 elicited receptor endocytosis in the presence of exendin 9 (GLP-1 receptor [2]): diminished | Efficacy of GLP-1 to elicit receptor endocytosis (GLP-1 receptor [2]): 82% | EC50 (GLP-1 receptor [3]): 3.1 µM | effect on cAMP production elicited by GIP [4]: do not affect | effect on cAMP production elicited by glucagon [5]: do not affect | concentration at which enhancement of cAMP production became saturated (GLP-1 receptor [1]; 3 nM of GLP-1, FIG. 9B): 0.03 mg/mL | left shift of dose response curve of GLP-1 (GLP-1 receptor [1]; 0.0025 mg/ml of compound 2): 2.5 orders of magnitude | potentiating effect on GLP-1 stimulated cAMP production in presence of exendin 9 or MDL12330A (GLP-1 receptor [1]; FIG. 10A, 10B): blocked | effect on cAMP production by small molecule agonist Boc5 (GLP-1 receptor [1]; RINm5F cells): little effect | potentiation of the affinity of GLP-1 / GLP-1 dependent cAMP production (GLP-1 receptor [1]; RINm5F cells): up to 1000 fold | potentiation of the affinity of GLP-1 / GLP-1 dependent cAMP production (GLP-1 receptor [1]; RINm5F cells, listed as Compound 2): 1000 fold | cAMP production by compound alone (GLP-1 receptor [1]): not able to induce cAMP production | cAMP production by compound alone (GLP-1 receptor [1]; listed as Compound 2): does not elicit cAMP production in the absence of GLP-1 | intrinsic agonistic or antagonistic activity (GLP-1 receptor [1]): without intrinsic agonistic or antagonistic activity

CC1(C)CCC[C@@]2(C)C1CC[C@@]1(C=O)[C@H](O)CC(C=O)=CC[C@@H]12 (stereo partly drawn) [galanal B]
degradation of GLP-1 by limited trypsin digestion (GLP-1): protects GLP-1 from trypsin degradation | potentiation effect on PTH induced receptor endocytosis (selectivity) (PTHR): did not show similar effect on PTH and its cognate receptor | increase of the affinity of GLP-1 (GLP-1 receptor [2]; FIG. 5C, 0.001 mg/ml of galanal B): 4 folds | positive modulation effect on GLP-1 elicited receptor endocytosis in the presence of exendin 9 (GLP-1 receptor [2]): diminished | Efficacy of GLP-1 to elicit receptor endocytosis (GLP-1 receptor [2]): 115.2% | effect on GLP-1 dose-response curve / GLP-1 stimulated cAMP production (GLP-1 receptor [1]; RINm5F cells): did not significantly affect | effect on GLP-1 dose-response curve / GLP-1 stimulated cAMP production (GLP-1 receptor [1]; RINm5F cells, listed as galanal b): neutral | cAMP production by 3 nM of GLP-1 (GLP-1 receptor [1]; galanal B up to 0.04 mg/ml, FIG. 9B): not changed | intrinsic agonistic or antagonistic activity (GLP-1 receptor [1]): without intrinsic agonistic or antagonistic activity

CC1(C)CCC[C@]2(C)[C@H]3CC=C(C=O)C[C@@H](O)[C@]3(C=O)CC[C@@H]12 [galanal B]
potentiation effect on PTH induced receptor endocytosis (selectivity) (PTHR): selective for GLP-1 but not for PTH | EC50 to potentiate receptor endocytosis elicited by 4 nM GLP-1 (GLP-1 receptor [2]; 4 nM GLP-1): 240 ng/mL | GLP-1 response potentiated by the fraction (GLP-1 receptor [2]; 0.0002 mg/ml, 4 nM GLP-1, from 20%): 40%
